Laboratory results taken from patent US9096591B2, “Tetracyclic compounds” (Medivation Technologies, Inc., priority 2007, dated 2015).
Like-named read-outs stand apart in the source and are kept apart here. Values belong to the compound of their own block, whether it stands above or below them.

Key:
[1] = target: T1, human recombinant serotonin (5-Hydroxytryptamine) 5-HT2A receptor (Homo sapiens, UniProt P28223); experiment: Serotonin 5-HT2A radioligand binding ([3H]Ketanserin); set-up: Inhibition of ligand binding, Ser. 5-HT2A: concentration or dose not given beside the values; settings: percent inhibition of specific binding
T1 construct: expressed in transfected cells; host or cells: CHO-K1 cells
T1 sequence (P28223 whole entry): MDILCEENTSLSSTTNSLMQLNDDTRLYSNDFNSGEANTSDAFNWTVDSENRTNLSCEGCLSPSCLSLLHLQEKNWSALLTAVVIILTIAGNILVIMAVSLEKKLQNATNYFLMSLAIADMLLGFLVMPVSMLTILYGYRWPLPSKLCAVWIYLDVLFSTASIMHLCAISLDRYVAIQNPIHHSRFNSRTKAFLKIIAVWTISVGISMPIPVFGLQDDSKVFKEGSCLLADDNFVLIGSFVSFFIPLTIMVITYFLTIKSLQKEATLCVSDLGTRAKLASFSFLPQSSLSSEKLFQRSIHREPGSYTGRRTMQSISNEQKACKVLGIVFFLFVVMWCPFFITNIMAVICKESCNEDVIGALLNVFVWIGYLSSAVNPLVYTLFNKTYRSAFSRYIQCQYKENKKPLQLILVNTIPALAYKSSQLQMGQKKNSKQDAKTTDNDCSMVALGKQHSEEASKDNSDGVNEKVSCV
Procedure: Compounds of the invention were incubated with 0.5 nM [^3H]Ketanserin for 60 minutes at 25° C. Non-specific binding was estimated in the presence of 1 μM Mianserin. Receptor proteins were filtered and washed, the filters were then counted to determine [^3H]Ketanserin specifically bound. […] Biochemical assay results are presented as the percent inhibition of specific binding in Table 6.

[2] = test system: synaptosomes of cortex of rat brain; experiment: Glutamate-induced 45Ca2+ uptake into synaptosomes; type: biochemical, Wistar rats; settings: for % Ca of control (control-100%), glutamate-induced 45Ca2+ uptake into synaptosomes: rat cortex synaptosomes
Method in brief: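 Cortical synaptosomes (P2 fraction) from 9-10-day-old Wistar rats, ~1.5-2 mg/ml protein in HEPES-buffered saline with glucose, pH 7.4, stimulated 5 min with 200 μM glutamate at 37° C. 45Ca2+ uptake measured by filtration and scintillation counting; specific uptake with compound expressed as percentage of glutamate-induced uptake, each corrected for unstimulated uptake.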

rat brain mitochondria = experiment: Ca2+-induced swelling of mitochondria (MPT pore opening); type: biochemical, Wistar rats; settings: for A540 increase in mitochondrial suspension after addition of 100 μM of compound: 100 μM compound
Procedure: Rat liver and brain mitochondria were prepared from male Wistar rats. The rats were euthanized in a CO2 chamber followed by decapitation the procedure being in compliance with the Guidelines for Animal Experiments at IPAC RAS. […]
Brain mitochondria were isolated from the pooled forebrains of two rats. The modified method of Sims was used to isolate and purify brain mitochondria in a Percoll gradient. The brain was homogenized in “buffer A” (225 mM mannitol, 75 mM sucrose, 5 mM HEPES, 1 mM EGTA, pH 7.4 [KOH]) and centrifuged for 10 min at 1300 g. The supernatant was centrifuged for 10 min at 10000 g, and then the pellet was suspended in 15% Percoll and layered on a discontinuous gradient consisting of 40 and 23% Percoll, respectively, which was then centrifuged for 10 min at 30000 g without using brakes. The mitochondria were collected from the interface of the lower two layers and after resuspension in “buffer A”, the suspension was centrifuged at 16600 g for 10 min, then the pellet was resuspended in “buffer A”, BSA (10 mg/mL) was added to bind free fatty acids; and the suspensions was centrifuged again at 6300 g for 10 min. Following centrifugation the pelleted mitochondria were re-suspended in isolation medium without EGTA to achieve a protein concentration of 15-20 mg/ml.
Mitochondrial swelling caused by influx of solutes through open PT pores results in an increase in light transmission (i.e., a reduced turbidity). This turbidity change offers a convenient and frequently used assay of the MPT by measurement of absorbance in mitochondrial suspensions. In the present study, the MPT induced by Ca^2+ and inorganic phosphate (Ca/Pi) was monitored by absorbance changes at 540 nm in a cuvette in a Beckman DU 640 spectrophotometer in 1 ml of buffer A plus 0.8 μM rotenone, 5 mM succinate, 1 mM KH2PO4 and 0.5 mg or 0.2 mg protein of isolated liver or brain mitochondria, accordingly. Reaction was started by the addition of triggering agent (Ca^2+). Pre-treatment and reaction were performed at 30° C. Swelling rate was quantified as ΔA540/min/mg, calculated, in all cases, from a tangent to the steepest portion of the plot of A540 versus time.
Ca^2+-induced Swelling of mitochondria was used as the primary screening test for compounds influence on MPT pore opening. […] But the inhibition of swelling may be connected not only with direct inhibition of MPT pore opening but also with the impairment of respiratory function of mitochondria and with the compounds action on calcium transport into mitochondria. For the primary estimation of these possibilities the mitochondrial membrane potential and calcium retention capacity of mitochondria were measured. […] New synthesized compounds (except C-14 and C-43) alone induced an increase of brain mitochondria suspension turbidity. The mechanism of such effect needs additional investigations.

[3] = read-out: IC50, Ca2+-induced (25-50 μM) swelling of brain mitochondria, rat brain mitochondria, Ca2+ 25-50 μM

Structure (SMILES): CN1CCc2c(c3cc(Cl)ccc3n2CCc2ccc(C(F)(F)F)nc2)C1 [Compound 250]
- Inhibition of ligand binding, Ser. 5-HT2A [1]: 101%

- IC50 (rat brain mitochondria; concentration reducing to 50% the initial rate of turbidity fall after calcium addition, read-out: IC50, decrease of calcium-induced swelling of brain mitochondria): ~6 µM
- IC50 (rat brain mitochondria; [3]): 6.25 ± 6.25 µM
Structure (SMILES): CN1CCc2c(c3cc(Cl)ccc3n2CCc2nc(-c3ccccc3)cs2)C1 [Compound C1-8]
- inhibition of glutamate-induced 45Ca2+ uptake into synaptosomes ([2]; 1-5 μM): ~14%
- glutamate-induced 45Ca2+ uptake into synaptosomes of rat cortex, % of control ([2]; 50-100 μM): 122%
- % Ca of control (control-100%), glutamate-induced 45Ca2+ uptake into synaptosomes ([2]; compound 0.1 μM): 99.2 ± 1.4%
- % Ca of control (control-100%), glutamate-induced 45Ca2+ uptake into synaptosomes ([2]; compound 0.5 μM): 96.7 ± 2.4%
- % Ca of control (control-100%), glutamate-induced 45Ca2+ uptake into synaptosomes ([2]; compound 1 μM): 86.1 ± 0.1%
- % Ca of control (control-100%), glutamate-induced 45Ca2+ uptake into synaptosomes ([2]; compound 5 μM): 87.7 ± 2.7%
- % Ca of control (control-100%), glutamate-induced 45Ca2+ uptake into synaptosomes ([2]; compound 10 μM): 99.3 ± 3.0%
- % Ca of control (control-100%), glutamate-induced 45Ca2+ uptake into synaptosomes ([2]; compound 50 μM): 122.4 ± 1.6%
- % Ca of control (control-100%), glutamate-induced 45Ca2+ uptake into synaptosomes ([2]; compound 100 μM): 121.7 ± 13.9%
- A540 increase in mitochondrial suspension after addition of 100 μM of compound (rat brain mitochondria; rat brain mitochondria): 25 rel.units

Structure (SMILES): Cc1ccc2c(c1)c1c(n2CCc2ccc(C)nc2)CCN(C)C1 [Dimebon, dimebon, reference compound]
- Inhibition of ligand binding, Ser. 5-HT2A [1]: 82%
- concentration at which glutamate-induced 45Ca2+ uptake into synaptosomes was inhibited [2]: 0.25 to 10 µM
- inhibition of glutamate-induced 45Ca2+ uptake into synaptosomes ([2]; 1 μM (maximal inhibition)): 40%
- glutamate-induced 45Ca2+ uptake into synaptosomes of rat cortex, % Ca of control (control-100%) ([2]; C 0.1 μM): 120 ± 3.3%
- glutamate-induced 45Ca2+ uptake into synaptosomes of rat cortex, % Ca of control (control-100%) ([2]; C 0.1 μM, listed as dimebon): 120.4%
- glutamate-induced 45Ca2+ uptake into synaptosomes of rat cortex, % Ca of control (control-100%) ([2]; C 0.5 μM): 64.4 ± 12.4%
- glutamate-induced 45Ca2+ uptake into synaptosomes of rat cortex, % Ca of control (control-100%) ([2]; C 1.0 μM): 61.3 ± 8.1%
- glutamate-induced 45Ca2+ uptake into synaptosomes of rat cortex, % Ca of control (control-100%) ([2]; C 5.0 μM): 83.2 ± 4.1%
- glutamate-induced 45Ca2+ uptake into synaptosomes of rat cortex, % Ca of control (control-100%) ([2]; C 10 μM): 89.3 ± 1.2%
- glutamate-induced 45Ca2+ uptake into synaptosomes of rat cortex, % Ca of control (control-100%) ([2]; C 25 μM): 97.2 ± 8.5%
- glutamate-induced 45Ca2+ uptake into synaptosomes of rat cortex, % Ca of control (control-100%) ([2]; C 50 μM): 98.7 ± 8.8%
- glutamate-induced 45Ca2+ uptake into synaptosomes of rat cortex, % Ca of control (control-100%) ([2]; C 100 μM): 132 ± 2.9%
- glutamate-induced 45Ca2+ uptake into synaptosomes of rat cortex, % Ca of control (control-100%) ([2]; C 100 μM, listed as dimebon): 132%
- A540 increase in mitochondrial suspension after addition of 100 μM of compound (rat brain mitochondria; rat brain mitochondria): 1 rel.units
- IC50 (rat brain mitochondria; [3]): 66 ± 26 µM
